Measurements reported in ChEMBL document CHEMBL1201862, “PubChem BioAssay data set” (2004).
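Cells were grown in 96-well plates and exposed to each compound for 48 hours at five concentrations; endpoints were interpolated linearly between bracketing concentrations, or set to the highest concentration if not reached. GI50 is the concentration that inhibits growth by half.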 The source made the active and inactive calls. No stated cut-off is given here; in the data, active = GI50 up to about 1.1 µM and inactive = higher.

Assays:
Test in all cases: NCI-60 cell line screen, 48 h
[1] = tested on: COLO 205
[2] = tested on: SNB-75
[3] = tested on: NCI-H226
[4] = tested on: U-251
[5] = tested on: HCT-15
[6] = tested on: IGROV-1
[7] = tested on: NCI-H460
[8] = tested on: CAKI-1
[9] = tested on: RXF 393
[10] = tested on: SF-295
[11] = tested on: SNB-19
[12] = tested on: HCC 2998
[13] = tested on: NCI-H522
[14] = tested on: HL-60
[15] = tested on: OVCAR-5
[16] = tested on: OVCAR-3

SMILES	GI50 [1]	GI50 [2]	GI50 [3]	GI50 [4]	GI50 [5] [µM]	GI50 [6]	GI50 [7]	GI50 [8]	GI50 [9]	GI50 [10]	GI50 [11]	GI50 [12]	GI50 [13]	GI50 [14]	GI50 [15]	GI50 [16]
CCCCCCCCCCCCCC(=O)OCC1OC(n2cc(F)c(=O)[nH]c2=O)C(NC(=O)OCc2ccccc2)C(OC(=O)CCCCCCCCCCCCC)C1O (centres undefined)	> 100 µM (inactive)	> 100 µM (inactive)	> 100 µM (inactive)	> 100 µM (inactive)	> 100	> 100 µM (inactive)	> 100 µM (inactive)	> 100 µM (inactive)	> 100 µM (inactive)	22.9 µM (inactive)	> 100 µM (inactive)	> 100 µM (inactive)	> 100 µM (inactive)	> 100 µM (inactive)	25.6 µM (inactive)	> 100 µM (inactive)
CN(C)c1ccc(/C=C2\Cc3ccccc3C2=O)cc1Br	92.9 µM (inactive)	38.5 µM (inactive)	–	53.3 µM (inactive)	35.7	> 100 µM (inactive)	53.6 µM (inactive)	64.1 µM (inactive)	–	> 100 µM (inactive)	> 100 µM (inactive)	> 100 µM (inactive)	23.4 µM (inactive)	–	79.1 µM (inactive)	> 100 µM (inactive)
N#C/C(=C1\OC(=N)C(c2ccc(Cl)cc2)=C1O)c1ccc(Cl)cc1	18.8 µM (inactive)	17.5 µM (inactive)	10 µM (inactive)	15.3 µM (inactive)	–	15.7 µM (inactive)	17.3 µM (inactive)	17.3 µM (inactive)	12.4 µM (inactive)	15.8 µM (inactive)	19.6 µM (inactive)	17.1 µM (inactive)	12 µM (inactive)	13.3 µM (inactive)	2.99 µM (inactive)	14.8 µM (inactive)
COC(=O)OCC1OC(N2C(=O)NC(=O)C(Br)C2N=[N+]=[N-])CC1OC(=O)OC (centres undefined)	> 100 µM (inactive)	> 100 µM (inactive)	> 100 µM (inactive)	> 100 µM (inactive)	> 100	> 100 µM (inactive)	> 100 µM (inactive)	> 100 µM (inactive)	> 100 µM (inactive)	> 100 µM (inactive)	> 100 µM (inactive)	> 100 µM (inactive)	66.4 µM (inactive)	–	> 100 µM (inactive)	> 100 µM (inactive)
C=CC[C@H]1C[C@@]2(C)OC[C@H](C(C)C)N2C1=O	> 100 µM (inactive)	> 100 µM (inactive)	–	> 100 µM (inactive)	> 100	> 100 µM (inactive)	> 100 µM (inactive)	> 100 µM (inactive)	> 100 µM (inactive)	> 100 µM (inactive)	> 100 µM (inactive)	–	–	–	> 100 µM (inactive)	> 100 µM (inactive)
Cn1c(=O)c2c(ncn2CCCCn2ccnc2[N+](=O)[O-])n(C)c1=O	> 100 µM (inactive)	38.3 µM (inactive)	> 100 µM (inactive)	> 100 µM (inactive)	> 100	> 100 µM (inactive)	> 100 µM (inactive)	–	> 100 µM (inactive)	> 100 µM (inactive)	> 100 µM (inactive)	–	> 100 µM (inactive)	> 100 µM (inactive)	> 100 µM (inactive)	> 100 µM (inactive)
C=CC(=O)NCCSCCCOC1(C(=O)O)CC(O)C(NC(C)=O)C(C(O)C(O)CO)O1 (centres undefined)	> 100 µM (inactive)	–	> 100 µM (inactive)	> 100 µM (inactive)	> 100	> 100 µM (inactive)	> 100 µM (inactive)	–	> 100 µM (inactive)	> 100 µM (inactive)	> 100 µM (inactive)	> 100 µM (inactive)	> 100 µM (inactive)	> 100 µM (inactive)	> 100 µM (inactive)	> 100 µM (inactive)
COC(=O)C1[C@@H](C(=O)OC)C(=O)O[C@H]1c1cc(OC)c(OC)c(OC)c1 (some centres undefined)	> 100 µM (inactive)	> 100 µM (inactive)	> 100 µM (inactive)	> 100 µM (inactive)	> 100	> 100 µM (inactive)	> 100 µM (inactive)	> 100 µM (inactive)	> 100 µM (inactive)	> 100 µM (inactive)	> 100 µM (inactive)	> 100 µM (inactive)	–	> 100 µM (inactive)	> 100 µM (inactive)	> 100 µM (inactive)
CCCCCCCCCCCCCCCCCC[N+](C)(C)Cc1ccc(C[N+](C)(C)CCCCCCCCCCCCCCCCCC)cc1	34.8 µM (inactive)	3.15 µM (inactive)	5.53 µM (inactive)	7.98 µM (inactive)	28	16.6 µM (inactive)	17.6 µM (inactive)	21.2 µM (inactive)	2.71 µM (inactive)	11.3 µM (inactive)	14.1 µM (inactive)	26.2 µM (inactive)	2.97 µM (inactive)	–	32.9 µM (inactive)	7.01 µM (inactive)
